Laboratory results: patent publication US20200093103A1, “BREEDING WATER FOR ANGUILLIFORMES AND METHOD FOR REARING ANGUILLIFORMES” (SHIN NIPPON BIOMEDICAL LABORATORIES, LTD., priority 2016, published 2020)

System: Anguilla japonica leptocephali
Experiment: Induction of Anguilla japonica metamorphosis by T4 treatment in 23° C. breeding water
Format: in vivo
Design: key: L: During life, no characteristics of metamorphosis seen.; Stage 1: Starting phase of metamorphosis. The rostral end is rounded, and intestinal degeneration starts.; Stage 2: Peak phase of metamorphosis. Intestinal degeneration becomes pronounced.; Stage 3: Late phase of metamorphosis.; Stage 4: Pre-glass eel stage. Almost the eel form, but the body height still remains
Excerpt: Stage 1: Starting phase of metamorphosis. The rostral end is rounded, and intestinal degeneration starts.
Stage 2: Peak phase of metamorphosis. Intestinal degeneration becomes pronounced. In the second half, the anus reaches to near the last vertical blood vessel (VBV last).
Stage 3: Late phase of metamorphosis. The preanal length (PAL) becomes equal to or shorter than the last vertical blood vessel length (VBV last Length) (PAL VBV last Length). The body height is apparently low.
Stage 4: Pre-glass eel stage. Almost the eel form, but the body height still remains. Melanophores on the body surface or endogenous melanophores are not yet seen.
Elver stage: Juvenile stage. Food intake can be identified.
A thyroid hormone (e.g., thyroxine (T4)) is adjusted to 50 to 100 mM in a 1- to 2-mL volume messflask. As a solvent, known solvents (water, alcohol) can be used. Ethanol is preferably used as the solvent.
For example, using ethanol as a solvent, T4 adjusted to 50 mM is diluted 500-fold, 5,000-fold, and 50,000-fold, respectively, and adjusted to […], 1 μM, and 100 nM. A feed can be prepared in this manner.
Artificial seawater is added to a breeding vessel, and 1/1000 of the […] T4 is added to prepare […] T4 breeding water.
Half of the breeding water is replaced every two days with breeding water of the same concentration. In the case where the concentration is changed, for example, in the case of changing from 10 nM to 2 nM, 80% to the breeding water is removed, and unadjusted artificial seawater is newly added to make 1 L.
Leptocephali visually considered to have reached a total length of 40 mm (or may be 30 mm to 50 mm, may be 35 mm to 45 mm, or may also be 35 mm or more, 40 mm or more, or 45 mm or more) are selected, anesthetized with 2-phenoxyethanol, and then photographed, and the total length of each larva is measured using an image analyzing device.
The larvae are placed in 10 nM T4 breeding water and then placed in an incubator set at 23° C., and breeding is started. In first one week, observation is performed every two days, and half of the 10 nM T4 breeding water is replaced each time. The average amount of thyroid hormone in the breeding water in stage 1 is 1 nM to 100 nM, for example, and may also be 3 nM to 30 nM, or 5 nM to 20 nM.
For larvae visually judged to have reached the second half of stage 2, the concentration of the breeding water is changed. The breeding water is diluted 5-fold or 10-fold and adjusted to 2 nM or 1 nM T4, and breeding is continued. The average amount of thyroid hormone in the breeding water in stage 2 may be, as compared with the breeding water of stage 1, diluted 2-fold to 20-fold, diluted 3 to 15-fold, or diluted 5 to 10-fold as described above. The average amount of thyroid hormone in the breeding water in stage 2 is 0.1 nM to 20 nM, for example, and may also be 0.5 nM to 10 nM, 1 nM to 5 nM, or 1 nM to 2 nM.
For larvae visually judged to have reached stage 3, the breeding water is quickly changed 0.2 nM T4 breeding water, which is a 5-fold dilution of 1 nM T4 breeding water, and further changed to 0.1 nM T4 breeding water on the following day. […] Also, in larvae whose anus position has not reached the last vertical hemal spine, when they are judged to be on the brink of stage 3, the concentration is changed as above. The average amount of thyroid hormone in the breeding water in stage 3 may be, as compared with the breeding water of stage 2, diluted 2-fold to 50-fold, diluted 3 to 15-fold, diluted 4 to 6-fold, or diluted 5-fold as described above. The average amount of thyroid hormone in the breeding water in stage 3 is 0.01 nM to 2 nM, for example, and may also be 0.05 nM to 1 nM, 0.1 nM to 0.5 nM, or 0.1 nM to 0.2 nM. […] That is, the concentration may be changed such that the thyroid hormone becomes undetectable in the breeding water in the course of stage 3.
In stage 3, breeding is continuously performed in the 0.1 nM T4 breeding water. […]

## N[C@@H](Cc1cc(I)c(Oc2cc(I)c(O)c(I)c2)c(I)c1)C(=O)O [T4, thyroxine]
Individual Exp. 5-6, 174 days old, total length 34.5 mm at start, c3 onward = treatment days 1,3,5,7,8,9,10,11,12,13,14,15,16,17,18,20,22, T4 (nM) 10,10,10,10,10,10,10,2,1,1,0.2,0.1,0.1,0.1,0.1,0.1,0.1, treatment day 11, T4 2 nM
  metamorphosis stage: 2
Individual Exp. 5-6, 174 days old, total length 34.5 mm at start, c3 onward = treatment days 1,3,5,7,8,9,10,11,12,13,14,15,16,17,18,20,22, T4 (nM) 10,10,10,10,10,10,10,2,1,1,0.2,0.1,0.1,0.1,0.1,0.1,0.1, treatment day 12, T4 1 nM
  metamorphosis stage: 2
Individual Exp. 5-6, 174 days old, total length 34.5 mm at start, c3 onward = treatment days 1,3,5,7,8,9,10,11,12,13,14,15,16,17,18,20,22, T4 (nM) 10,10,10,10,10,10,10,2,1,1,0.2,0.1,0.1,0.1,0.1,0.1,0.1, treatment day 13, T4 1 nM
  metamorphosis stage: 2
Individual Exp. 5-6, 174 days old, total length 34.5 mm at start, c3 onward = treatment days 1,3,5,7,8,9,10,11,12,13,14,15,16,17,18,20,22, T4 (nM) 10,10,10,10,10,10,10,2,1,1,0.2,0.1,0.1,0.1,0.1,0.1,0.1, treatment day 14, T4 0.2 nM
  metamorphosis stage: 3
Individual Exp. 5-6, 174 days old, total length 34.5 mm at start, c3 onward = treatment days 1,3,5,7,8,9,10,11,12,13,14,15,16,17,18,20,22, T4 (nM) 10,10,10,10,10,10,10,2,1,1,0.2,0.1,0.1,0.1,0.1,0.1,0.1, treatment day 15, T4 0.1 nM
  metamorphosis stage: 3
Individual Exp. 5-6, 174 days old, total length 34.5 mm at start, c3 onward = treatment days 1,3,5,7,8,9,10,11,12,13,14,15,16,17,18,20,22, T4 (nM) 10,10,10,10,10,10,10,2,1,1,0.2,0.1,0.1,0.1,0.1,0.1,0.1, treatment day 16, T4 0.1 nM
  metamorphosis stage: 3
Individual Exp. 5-6, 174 days old, total length 34.5 mm at start, c3 onward = treatment days 1,3,5,7,8,9,10,11,12,13,14,15,16,17,18,20,22, T4 (nM) 10,10,10,10,10,10,10,2,1,1,0.2,0.1,0.1,0.1,0.1,0.1,0.1, treatment day 17, T4 0.1 nM
  metamorphosis stage: 3
Individual Exp. 5-6, 174 days old, total length 34.5 mm at start, c3 onward = treatment days 1,3,5,7,8,9,10,11,12,13,14,15,16,17,18,20,22, T4 (nM) 10,10,10,10,10,10,10,2,1,1,0.2,0.1,0.1,0.1,0.1,0.1,0.1, treatment day 18, T4 0.1 nM
  metamorphosis stage: 3
Individual Exp. 5-6, 174 days old, total length 34.5 mm at start, c3 onward = treatment days 1,3,5,7,8,9,10,11,12,13,14,15,16,17,18,20,22, T4 (nM) 10,10,10,10,10,10,10,2,1,1,0.2,0.1,0.1,0.1,0.1,0.1,0.1, treatment day 20, T4 0.1 nM
  metamorphosis stage: 3
Individual Exp. 5-6, 174 days old, total length 34.5 mm at start, c3 onward = treatment days 1,3,5,7,8,9,10,11,12,13,14,15,16,17,18,20,22, T4 (nM) 10,10,10,10,10,10,10,2,1,1,0.2,0.1,0.1,0.1,0.1,0.1,0.1, treatment day 22, T4 0.1 nM
  metamorphosis stage: 4
Individual Exp. 6-1, 129 days old, total length 40.6 mm at start, c3 onward = treatment days 1,3,5,7,9,10,11,12,13,14,15,16,17,18,19, T4 (nM) 10,10,10,10,2,1,0.2,0.1,0.1,0.1,0.1,0.1,0.1,0.1,0.1, treatment day 1
  metamorphosis stage: L
Individual Exp. 6-1, 129 days old, total length 40.6 mm at start, c3 onward = treatment days 1,3,5,7,9,10,11,12,13,14,15,16,17,18,19, T4 (nM) 10,10,10,10,2,1,0.2,0.1,0.1,0.1,0.1,0.1,0.1,0.1,0.1, treatment day 3
  metamorphosis stage: 1
Individual Exp. 6-1, 129 days old, total length 40.6 mm at start, c3 onward = treatment days 1,3,5,7,9,10,11,12,13,14,15,16,17,18,19, T4 (nM) 10,10,10,10,2,1,0.2,0.1,0.1,0.1,0.1,0.1,0.1,0.1,0.1, treatment day 5
  metamorphosis stage: 1
Individual Exp. 6-1, 129 days old, total length 40.6 mm at start, c3 onward = treatment days 1,3,5,7,9,10,11,12,13,14,15,16,17,18,19, T4 (nM) 10,10,10,10,2,1,0.2,0.1,0.1,0.1,0.1,0.1,0.1,0.1,0.1, treatment day 7
  metamorphosis stage: 2
Individual Exp. 6-1, 129 days old, total length 40.6 mm at start, c3 onward = treatment days 1,3,5,7,9,10,11,12,13,14,15,16,17,18,19, T4 (nM) 10,10,10,10,2,1,0.2,0.1,0.1,0.1,0.1,0.1,0.1,0.1,0.1, treatment day 9
  metamorphosis stage: 2
Individual Exp. 6-1, 129 days old, total length 40.6 mm at start, c3 onward = treatment days 1,3,5,7,9,10,11,12,13,14,15,16,17,18,19, T4 (nM) 10,10,10,10,2,1,0.2,0.1,0.1,0.1,0.1,0.1,0.1,0.1,0.1, treatment day 10
  metamorphosis stage: 2
Individual Exp. 6-1, 129 days old, total length 40.6 mm at start, c3 onward = treatment days 1,3,5,7,9,10,11,12,13,14,15,16,17,18,19, T4 (nM) 10,10,10,10,2,1,0.2,0.1,0.1,0.1,0.1,0.1,0.1,0.1,0.1, treatment day 11
  metamorphosis stage: 3
Individual Exp. 6-1, 129 days old, total length 40.6 mm at start, c3 onward = treatment days 1,3,5,7,9,10,11,12,13,14,15,16,17,18,19, T4 (nM) 10,10,10,10,2,1,0.2,0.1,0.1,0.1,0.1,0.1,0.1,0.1,0.1, treatment day 12
  metamorphosis stage: 3
Individual Exp. 6-1, 129 days old, total length 40.6 mm at start, c3 onward = treatment days 1,3,5,7,9,10,11,12,13,14,15,16,17,18,19, T4 (nM) 10,10,10,10,2,1,0.2,0.1,0.1,0.1,0.1,0.1,0.1,0.1,0.1, treatment day 13
  metamorphosis stage: 3
Individual Exp. 6-1, 129 days old, total length 40.6 mm at start, c3 onward = treatment days 1,3,5,7,9,10,11,12,13,14,15,16,17,18,19, T4 (nM) 10,10,10,10,2,1,0.2,0.1,0.1,0.1,0.1,0.1,0.1,0.1,0.1, treatment day 14
  metamorphosis stage: 3
Individual Exp. 6-1, 129 days old, total length 40.6 mm at start, c3 onward = treatment days 1,3,5,7,9,10,11,12,13,14,15,16,17,18,19, T4 (nM) 10,10,10,10,2,1,0.2,0.1,0.1,0.1,0.1,0.1,0.1,0.1,0.1, treatment day 15
  metamorphosis stage: 3
Individual Exp. 6-1, 129 days old, total length 40.6 mm at start, c3 onward = treatment days 1,3,5,7,9,10,11,12,13,14,15,16,17,18,19, T4 (nM) 10,10,10,10,2,1,0.2,0.1,0.1,0.1,0.1,0.1,0.1,0.1,0.1, treatment day 16
  metamorphosis stage: 3
Individual Exp. 6-1, 129 days old, total length 40.6 mm at start, c3 onward = treatment days 1,3,5,7,9,10,11,12,13,14,15,16,17,18,19, T4 (nM) 10,10,10,10,2,1,0.2,0.1,0.1,0.1,0.1,0.1,0.1,0.1,0.1, treatment day 17
  metamorphosis stage: 3
Individual Exp. 6-1, 129 days old, total length 40.6 mm at start, c3 onward = treatment days 1,3,5,7,9,10,11,12,13,14,15,16,17,18,19, T4 (nM) 10,10,10,10,2,1,0.2,0.1,0.1,0.1,0.1,0.1,0.1,0.1,0.1, treatment day 18
  metamorphosis stage: 3
Individual Exp. 6-1, 129 days old, total length 40.6 mm at start, c3 onward = treatment days 1,3,5,7,9,10,11,12,13,14,15,16,17,18,19, T4 (nM) 10,10,10,10,2,1,0.2,0.1,0.1,0.1,0.1,0.1,0.1,0.1,0.1, treatment day 19
  metamorphosis stage: 4
